Data on 1 compound can be found in PMC9915920, “The Antidepressant Paroxetine Reduces the Cardiac Sodium Current” (International Journal of Molecular Sciences, 2023).

The target in this assay is T1, cardiac voltage-gated sodium channel (NaV1.5) (Homo sapiens, UniProt Q14524).
T1 construct: gene SCN5A; human NaV1.5 channels stably expressed in HEK-293 cells, without β-subunits
The assay is described as follows: whole-cell patch clamp, peak NaV1.[…] current at −[…] mV, HEK-293 cells. The assay is classed as cell-based. For orientation: The patch-clamp technique gives a direct electrical read-out from membranes.

Each structure is given as a SMILES string.

T1 sequence (Q14524 whole entry): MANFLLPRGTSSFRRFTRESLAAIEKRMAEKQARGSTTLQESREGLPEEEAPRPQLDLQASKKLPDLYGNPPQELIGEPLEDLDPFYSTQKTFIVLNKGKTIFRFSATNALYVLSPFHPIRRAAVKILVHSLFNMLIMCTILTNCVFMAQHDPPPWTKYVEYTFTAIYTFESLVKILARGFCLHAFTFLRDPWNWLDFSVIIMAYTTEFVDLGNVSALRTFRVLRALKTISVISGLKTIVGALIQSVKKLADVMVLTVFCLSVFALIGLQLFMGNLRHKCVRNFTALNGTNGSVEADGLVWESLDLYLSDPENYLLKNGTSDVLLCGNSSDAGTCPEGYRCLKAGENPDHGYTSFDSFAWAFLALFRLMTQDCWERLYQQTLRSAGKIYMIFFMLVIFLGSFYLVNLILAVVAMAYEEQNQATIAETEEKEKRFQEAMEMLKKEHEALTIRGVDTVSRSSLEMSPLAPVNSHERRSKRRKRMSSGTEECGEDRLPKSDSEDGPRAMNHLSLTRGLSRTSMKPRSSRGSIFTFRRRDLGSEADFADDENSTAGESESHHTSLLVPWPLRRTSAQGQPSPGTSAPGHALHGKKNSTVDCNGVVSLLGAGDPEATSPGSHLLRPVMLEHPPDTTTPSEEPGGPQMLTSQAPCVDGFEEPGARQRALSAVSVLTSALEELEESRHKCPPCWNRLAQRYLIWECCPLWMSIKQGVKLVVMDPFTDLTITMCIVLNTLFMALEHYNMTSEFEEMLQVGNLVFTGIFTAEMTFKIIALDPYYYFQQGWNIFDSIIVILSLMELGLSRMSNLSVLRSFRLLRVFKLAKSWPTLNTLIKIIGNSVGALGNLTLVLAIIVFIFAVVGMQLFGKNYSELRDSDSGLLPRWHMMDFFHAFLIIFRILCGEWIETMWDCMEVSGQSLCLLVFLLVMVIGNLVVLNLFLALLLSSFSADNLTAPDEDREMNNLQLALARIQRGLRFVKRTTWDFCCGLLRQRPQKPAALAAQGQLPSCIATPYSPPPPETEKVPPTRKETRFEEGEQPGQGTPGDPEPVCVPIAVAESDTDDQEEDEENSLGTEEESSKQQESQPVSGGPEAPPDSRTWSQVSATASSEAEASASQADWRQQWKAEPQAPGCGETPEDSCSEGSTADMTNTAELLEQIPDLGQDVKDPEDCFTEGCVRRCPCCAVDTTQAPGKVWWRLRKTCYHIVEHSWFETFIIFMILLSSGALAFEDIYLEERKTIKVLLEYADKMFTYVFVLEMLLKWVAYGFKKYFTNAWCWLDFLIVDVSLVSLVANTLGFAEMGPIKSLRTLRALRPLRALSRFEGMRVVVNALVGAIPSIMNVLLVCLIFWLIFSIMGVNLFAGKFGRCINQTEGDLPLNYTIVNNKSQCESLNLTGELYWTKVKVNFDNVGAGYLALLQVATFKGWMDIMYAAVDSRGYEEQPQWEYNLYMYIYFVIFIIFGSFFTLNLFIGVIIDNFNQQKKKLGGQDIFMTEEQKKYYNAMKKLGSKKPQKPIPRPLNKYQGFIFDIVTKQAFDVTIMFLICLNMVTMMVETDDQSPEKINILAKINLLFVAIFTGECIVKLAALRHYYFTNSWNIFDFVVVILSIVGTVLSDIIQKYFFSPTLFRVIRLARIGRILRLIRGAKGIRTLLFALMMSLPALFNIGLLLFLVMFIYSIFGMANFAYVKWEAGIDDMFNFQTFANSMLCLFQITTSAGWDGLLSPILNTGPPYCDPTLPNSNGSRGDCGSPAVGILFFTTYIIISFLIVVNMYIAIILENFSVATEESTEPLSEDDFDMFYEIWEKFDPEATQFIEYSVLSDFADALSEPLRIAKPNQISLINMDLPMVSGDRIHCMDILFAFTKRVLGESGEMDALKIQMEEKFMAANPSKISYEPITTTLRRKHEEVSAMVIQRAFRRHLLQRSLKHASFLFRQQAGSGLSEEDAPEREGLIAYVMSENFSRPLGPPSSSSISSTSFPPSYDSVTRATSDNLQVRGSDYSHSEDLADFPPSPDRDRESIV

`Fc1ccc([C@@H]2CCNC[C@H]2COc2ccc3c(c2)OCO3)cc1` [paroxetine] showed a half-inhibitory concentration (IC50) of 6.8 ± 1.1 µM.

As a reminder, the IC50 is the point on the concentration scale where inhibition reaches its midpoint. A high value points to weaker potency in that assay.
